The values that follow come from patent US10196604B2, “Mitochondrial inhibitors for use in culturing pluripotent stem cells” (The Board of Trustees of the Leland Stanford Junior …, priority 2014, dated 2019).

Each structure is given as a SMILES string.

The subject of one data set is SURVIVIN
In words: qRT-PCR gene expression in hES cells: SURVIVIN
Type of data set: cell-based. To be noted: Homo sapiens, 72 hours, normalized to β-ACTIN, read-out: Expression relative to control, SURVIVIN; for fold induction at 1000 µM: 1 mM. The procedure:
(§1) Total cellular RNA was extracted from cells using TRIzol (Invitrogen) and DNase treated with the DNA-free kit (Ambion, Austin, Tex., http (colon slash slash) www (dot) ambion.com) following manufacturer's directions for stringent conditions. RNA was dialyzed for 30 minutes against milliqwater, 10 mM Tris and 1 mM EDTA adjusted to pH 7.5 with HCL (all from Fisher). cDNA was synthesized using GeneAmp RNA PCR kit from Applied Biosciences (Fisher) and no-RT reactions were performed without reverse transcriptase and RNase inhibitor enzymes. One microgram of RNA was used, following manufacturer's directions. Quantitative real time polymerase chain reaction (qPCR) was performed to determine relative mRNA expression levels. Expression fold changes were calculated using the ΔΔCt method and normalized using the housekeeping gene, β-ACTIN as an internal control. Taqman master mix and gene assays with water only were used as a negative control. mRNA expression assays were analyzed in a triplicate PCR reaction with no-RT negative controls and each experiment was performed at least three independent times. Primers for OCT4 and NANOG were selected from predeveloped Applied Biosystems TaqMan Assays, which are pre-designed qPCR primers and TaqMan MGB probes; Oct-4 (Hs01895061_u1) and Nanog (Hs02387400_g1) were selected. Primers for SURVIVIN were: […]
(§2) Based on the toxicity results, nine of the above twelve compounds in Example 1 were selected for further screening to assess their effects on the expression of OCT4, NANOG and SURVIVIN in human embryonic stem cells. The results are summarized in Table 2, along with the mitochondrial inhibition activities for these compounds which were disclosed in US20110301180A1 to Collman et al. the content of which has been incorporated herein by reference.
(§3) The pluripotency of these cultured human embryonic stem cells were characterized by the marker gene expression as analyzed by Quantitative Reverse Transcriptase PCR (qRT-PCR). All compounds were tested at 1 mM concentration for 72 hours except for compound 1 which was tested at 10 μM. The reversibility of mitochondrial inhibition is presented in the right column.
Background: In qPCR the cycle at which signal appears reflects the starting amount.

In another data set the test system is OCT4. In words: qRT-PCR gene expression in hES cells: OCT4. The following applies: 72 hours. Type of data set: cell-based, human. The procedure: as §1, §2, §3
The subject of data set [1] is NANOG. In words: qRT-PCR gene expression in hES cells: NANOG. The data set is classed as cell-based. The following applies: Homo sapiens, 72 hours, normalized to β-ACTIN, read-out: Expression relative to control, NANOG; for fold induction at 1000 µM: 1 mM. The procedure: as §1, §2, §3
The next data set has as its system SURVIVIN, OCT4 and NANOG. In words: qRT-PCR of the three probed genes together (SURVIVIN, OCT4, NANOG) in hES cells. Type of data set: cell-based, human. The following applies: 72 hours. As for the experimental part:
as §1, §2, §3

Data set [2] has as its system mitochondrial respiration. The following applies: cited from earlier work; for Inhibition/Reversibility in mitochondrial inhibition: disclosed in US20110301180A1; for mitochondrial inhibition IC50: values from US 20110301180.
The nature of data set [3]: Solubility in the culture media. The data set is classed as physicochemical. To be noted: hES cell culture media. The source says:
Compound 2 was not soluble in the culture media and was not tested further.

Data set [4] concerns NANOG. To be noted: human embryonic stem cells; cited from earlier work.
Data set [5] concerns human embryonic stem cells. The data set can be described thus: Toxicity testing of mitochondrial inhibitors on hES cells (72 hr culture, crystal violet staining). To be noted: for nontoxic concentration (no toxicity up to): tested from 0.1 mM to 50 mM.
Method: Human ES cells, WA09 (WiCell Research Institute, Madison, Wis.) were cultured on dishes coated for at least two hours with Matrigel (BD Biosciences, Franklin Lakes, N.J.). hES cell media containing 80% knockout Dulbecco's modified eagle medium (DMEM), 20% knockout serum replacer, 1% nonessential amino acids, 1% penicillin/streptomycin (100 U per 100 μg/ml), 2 mM L-glutamine, (all from Invitrogen, Carlsbad, Calif.) and 4 ng/ml basic fibroblast growth factor (bFGF, ReproCELL, San Jose, Calif.) was pre-conditioned by culture with inactivated mouse embryonic fibroblasts (MEF; Millipore, Billerica, Mass.) and collected every two days. hES cell lines were cultured with human conditioned media (HuCM) supplemented with 4 ng/ml bFGF and a heterocyclic compound of a certain concentration. hES cells were maintained by weekly manual passaging or bulk passaging using 1 mg/ml Collagenase IV (Invitrogen). hES cells were plated for experiments using Accutase (Fisher, Pittsburgh, Pa.) and plated at a density of 26,000 cells/cm^2.
Toxicity Testing hES cells were plated as above and subjected to increasing concentrations of the mitochondrial inhibitors for 72 hr of culture. After 72 hr the cells were fixed in 2.0% formaldehyde and stained for 30 min with 0.05% crystal violet in distilled water. Stained cells were rinsed twice with distilled water and imaged using bright field microscopy.
These compounds were initially tested at concentrations from 0.1 mM to 50 mM.
The mark [6] stands for this setting: Homo sapiens, 1 mM, normalized to β-ACTIN, read-out: Expression relative to control, OCT4.

For the molecule `CSc1nnn[nH]1` [Compound 12, 5-methylsulfanyl-1H-tetrazole], the fold induction at 1000 µM in the data set with SURVIVIN turned out to be 1.05. For the same molecule, in the data set with OCT4 (setting [6]), the fold induction at 1000 µM came to 1.16. In the data set with NANOG [1], the fold induction at 1000 µM was determined as 0.844. Besides, in the data set with SURVIVIN, OCT4 and NANOG (1 mM), the “One of the genes overexpressed by at least 10%” value (shortened to “One … at least 10%”) is “Yes”; the “change in expression of SURVIVIN, OCT4 and NANOG following treatment (FIG. 2)” value (from here on “change in expression of SURVIVIN”) was “increased expression of SURVIVIN and OCT4 but not NANOG”. Also, in data set [2], the “Inhibition/Reversibility in mitochondrial inhibition” value (shortened to “Inhibition/Reversibility”) is “reversible mitochondrial inhibitors and Yes”; the “mitochondrial inhibition IC50” value is 14.5 mg/mL.
In the case of `Nc1nnn[nH]1` [Compound 7, 1H-tetrazol-5-amine], the fold induction at 1000 µM was 1.73 in the data set on SURVIVIN, 1.53 in the data set with OCT4 (setting [6]) and 0.917 with NANOG [1]. For the same molecule, the OCT4 overexpression entry with OCT4 (1 mM, vs control) was “at least 50%”. Further, the “One … at least 10%” value in the data set on SURVIVIN, OCT4 and NANOG (1 mM) is on record as “Yes”. Further, in the data set with SURVIVIN, OCT4 and NANOG (1 mM), the “change in expression of SURVIVIN” value was “increased expression of SURVIVIN and OCT4 but not NANOG”. Moreover, the “Inhibition/Reversibility” value in data set [2] is “reversible mitochondrial inhibitors and Yes”. Also, in data set [2], the “mitochondrial inhibition IC50” value was 8.5 mg/mL.
Regarding `O=C(O)Cc1nnn[nH]1` [Compound 11, 2-(1H-tetrazol-5-yl)acetic acid], the values for the fold induction at 1000 µM in the data set with SURVIVIN, in the data set with OCT4 (setting [6]) and with NANOG [1] were 0.975, 1.07 and 0.849, respectively. Moreover, the “One … at least 10%” value in the data set on SURVIVIN, OCT4 and NANOG (1 mM) was “No”. Besides, the “change in expression of SURVIVIN” value in the data set on SURVIVIN, OCT4 and NANOG (1 mM) is “increase in OCT4 and no other genes”.
Take `c1ccc(CSc2nnn[nH]2)cc1` [Compound 2, 5-benzylsulfanyl-1H-tetrazole]: the “solubility in the culture media” value in data set [3] is given as “not soluble”.
With `CCCCCC[C@H]1C(=O)O[C@H](C)[C@H](NC(=O)c2cccc(NC=O)c2O)C(=O)O[C@@H](C)[C@@H]1OC(=O)CC(C)C` [Antimycin A, [(2R,3S,6S,7R,8R)-3-[(3-formamido-2-hydroxybenzoyl)amino]-8-hexyl-2,6-dimethyl-4,9-dioxo-1,5-dioxonan-7-yl] 3-methylbutanoate], in the data set with NANOG [4], the “effect on expression of pluripotency factor NANOG” value is on record as “increase in the expression of pluripotency factor NANOG”.
Take `Cc1nnn[nH]1` [Compound 10, 5-methyl-1H-tetrazole]: the fold induction at 1000 µM was determined as 0.981 with SURVIVIN, 0.977 in the data set on OCT4 (setting [6]) and 0.778 with NANOG [1]. Moreover, in the data set with SURVIVIN, OCT4 and NANOG (1 mM), the “One … at least 10%” value was “No”. The “change in expression of SURVIVIN” value in the data set on SURVIVIN, OCT4 and NANOG (1 mM) is given as “decreased expression of all three genes”.
In the case of `Cc1cncs1` [Compound 4, 5-methylthiazole], the fold induction at 1000 µM with SURVIVIN was determined as 1.27. In the data set on OCT4 (setting [6]), the fold induction at 1000 µM worked out at 1.13. Also, in the data set with NANOG [1], the fold induction at 1000 µM was 1.14. Also, in the data set with SURVIVIN, OCT4 and NANOG (1 mM), the “One … at least 10%” value was “Yes”; the “change in expression of SURVIVIN” value is reported as “increased expression of all three genes”. For the same molecule, in data set [2], the “Inhibition/Reversibility” value was “reversible mitochondrial inhibitors and Yes”; the “mitochondrial inhibition IC50” value was 23.5 mg/mL. The “nontoxic concentration (no toxicity up to)” value in data set [5] is recorded as at most 10 mM.
As for `Cn1c(-c2ccccc2)cnc1S` [Compound 5, 3-methyl-4-phenyl-1H-imidazole-2-thione], the fold induction at 1000 µM was determined as 1.44 in the data set with SURVIVIN, 1.5 with OCT4 (setting [6]) and 1.16 with NANOG [1]. Further, in the data set on SURVIVIN, OCT4 and NANOG (1 mM), the “One … at least 10%” value is reported as “Yes”. Further, the “change in expression of SURVIVIN” value in the data set on SURVIVIN, OCT4 and NANOG (1 mM) is on record as “increased expression of all three genes”. Moreover, the “mitochondrial inhibition IC50” value in data set [2] is 5.4 mg/mL. The “nontoxic concentration (no toxicity up to)” value in data set [5] is “at least 5 mM”.
As to `Brc1nn[nH]c1Br` [Compound 9, 4,5-dibromo-1H-triazole], the “toxicity at 1 mM” value in data set [5] (1 mM) is listed as “minimal toxicity”. In addition, in data set [5], the “nontoxic concentration (no toxicity up to)” value was “up to 0.1 mM”.
`O=C(O)CCCC[C@H]1CCSS1` (single isomer, unassigned) [Compound 3, 5-[(3R or 3S)-dithiolan-3-yl]pentanoic acid]: the fold induction at 1000 µM amounted to 1.11 in the data set with SURVIVIN, 1.85 in the data set with OCT4 (setting [6]) and 0.717 in the data set with NANOG [1]. Besides, the “One … at least 10%” value in the data set on SURVIVIN, OCT4 and NANOG (1 mM) is recorded as “Yes”. Moreover, in the data set with SURVIVIN, OCT4 and NANOG (1 mM), the “change in expression of SURVIVIN” value is “increased expression of SURVIVIN and OCT4 but not NANOG”. In data set [2], the “mitochondrial inhibition IC50” value was 37.1 mg/mL.
For `Cc1ncsc1CCOC(=O)C[P+](c1ccccc1)(c1ccccc1)c1ccccc1.[Br-]` [Compound 1, [2-[2-(4-methylthiazol-5-yl)ethoxy]-2-oxo-ethyl]-triphenyl-phosphonium bromide], the fold induction at 10 µM with SURVIVIN (10 μM) turned out to be 0.892. Further, the fold induction at 10 µM in the data set on OCT4 (Homo sapiens, 10 μM, normalized to β-ACTIN, read-out: Expression relative to control, OCT4) came to 0.9. The fold induction at 10 µM with NANOG [1] (10 μM) came out at 0.902. For the same molecule, in the data set on SURVIVIN, OCT4 and NANOG (10 μM), the “One … at least 10%” value is “No”; the “change in expression of SURVIVIN” value is “decreased expression of all three genes”. Besides, in data set [2], the “Inhibition/Reversibility” value is reported as “No” and the “mitochondrial inhibition IC50” value was 8.8 mg/mL. In addition, in data set [5] (initial range 0.1 mM to 50 mM), the “toxicity at the initially tested concentrations” value was “toxic at all concentrations tested initially”. The “nontoxic / well tolerated concentration (up to)” value in data set [5] (retested at 0.1 to 100 μM) was “up to 10 μM”.
Regarding `CCOC(=O)Cc1nnn[nH]1` [Compound 6, ethyl 2-(1H-tetrazol-5-yl)acetate], the figures for the fold induction at 1000 µM with SURVIVIN, in the data set on OCT4 (setting [6]) and in the data set on NANOG [1] were 1.75, 1.34 and 0.867, respectively. Besides, the “One … at least 10%” value in the data set on SURVIVIN, OCT4 and NANOG (1 mM) is “Yes”. For the same molecule, in the data set on SURVIVIN, OCT4 and NANOG (1 mM), the “change in expression of SURVIVIN” value is “increased expression of SURVIVIN and OCT4 but not NANOG”. Further, the “mitochondrial inhibition IC50” value in data set [2] is 100 mg/mL.
